Data taken from patent US20260174739A1 (priority 2022, published 2026).

Tests used:
[1] = Human liver microsome assay (metabolic stability); assay type: in vitro ADME; conditions: pH 7.4; human liver microsomes 0.2 mg/mL, 1 μM test drug, NADPH, 37° C.; read-out: Half-life (t1/2, min)
Procedure, shortened: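 Human liver microsomes 0.2 mg/mL with 1 μM compound, 3.0 mM MgCl2 and 2.0 mM NADPH in 0.1 M phosphate pH 7.4, 37 °C; sampled at 0–60 min. LC-MS/MS peak-area ratio to internal standard; T1/2 and CLint from slope of ln residual versus time.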

[2] = In vivo metabolism (pharmacokinetic) experiment in mice; set-up: species or system male ICR mice; conditions: male, ICR, mouse, po, 10 mg/kg, male ICR mice
Procedure, shortened: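 Fasted (12 h) male ICR mice received compound in 5% DMSO/5% Solutol HS15/90% saline at 2.5 mg/kg iv or 10 mg/kg po. Plasma and brain sampled 0.083–8 h (n=3 per time point) and analysed by LC-MS/MS. Parameters derived by non-compartmental analysis.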

human DAT = human DAT (Homo sapiens, UniProt Q01959); test: DAT transporter inhibitory activity test (neurotransmitter transporter uptake assay kit); assay type: cell-based
human DAT, sequence (Q01959 whole entry): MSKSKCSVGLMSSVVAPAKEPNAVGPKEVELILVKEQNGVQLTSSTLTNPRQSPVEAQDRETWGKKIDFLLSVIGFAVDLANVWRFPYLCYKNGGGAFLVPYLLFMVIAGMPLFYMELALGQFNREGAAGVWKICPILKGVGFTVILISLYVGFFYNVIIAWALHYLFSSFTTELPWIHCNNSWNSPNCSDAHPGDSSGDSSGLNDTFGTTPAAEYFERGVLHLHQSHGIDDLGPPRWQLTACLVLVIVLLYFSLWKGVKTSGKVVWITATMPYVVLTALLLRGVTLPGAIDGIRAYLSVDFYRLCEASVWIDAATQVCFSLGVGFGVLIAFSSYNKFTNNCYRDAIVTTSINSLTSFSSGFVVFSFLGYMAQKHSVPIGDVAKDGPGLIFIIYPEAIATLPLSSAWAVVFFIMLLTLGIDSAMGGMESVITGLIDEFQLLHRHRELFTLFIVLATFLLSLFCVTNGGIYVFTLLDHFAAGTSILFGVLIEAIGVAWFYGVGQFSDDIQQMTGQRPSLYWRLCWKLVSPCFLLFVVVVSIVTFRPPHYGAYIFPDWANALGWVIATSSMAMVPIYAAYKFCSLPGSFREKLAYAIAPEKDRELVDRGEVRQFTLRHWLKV

With `CCNC1(c2ccccc2)CCc2nc(N)sc2C1` (racemic) [rac-A5, N^6-ethyl-6-phenyl-4,5,6,7-tetrahydrobenzothiazole-2,6-diamine] as the molecule, how does the half-life at 1 μM [1] read?
The half-life at 1 μM was greater than 120 min.

And the bioavailability ([2]; oral 10 mg/kg vs iv 2.5 mg/kg, read-out: F (%))?
Its bioavailability is 63%.

And the AUC(0-inf) ([2]; oral 10 mg/kg, plasma, read-out: AUC0-inf(po))?
The AUC(0-inf) was 1010 ng·h/mL.

And the Cmax ([2]; oral 10 mg/kg, plasma, read-out: Cmax (po))?
The Cmax was 250 ng/mL.

What about the half-life ([2]; oral 10 mg/kg, plasma, read-out: T1/2 (po) (converted)) of the same molecule?
Its half-life is 2.43 h.

What about the IC50 (human DAT) of the same molecule?
The IC50 was 2000 nM.
